This is an account of results in patent US20190152993A1, “Reversibly Switchable Surfactants and Methods of Use” (WARNER BABCOCK INSTITUTE FOR GREEN CHEMISTRY, LLC, priority 2016, published 2019).

SMILES strings stand for the structures. Marks after values point to notes of the source that are not given here. Where only a bound is given, the exact number is not on record here.

Series [1] can be described thus: Separate experiment: solubility of palmitic acid in hexanes with switchable surfactant activation. The format is physicochemical. To be noted: 1 mg/mL surfactant.
Description: The second vial was exposed to 365-nm ultraviolet light that activated the surfactant; the solution turned magenta due to the color of the merocyanine.
The nature of series [2]: Lifetimes (half-life) of the activated merocyanine surfactants in solvents. It counts as physicochemical. As to conditions: error limits 10-20%. As for the experimental part:
Lifetimes of the activated zwitterionic merocyanine isomers of compounds 4a, 4b, 4c, and 4e in several solvents were determined.
The spiropyran compound 4 was added to a solvent in a 1-cm quartz cuvette and the cuvette was irradiated with ultraviolet light at 365 nm for ˜60 seconds. […] Absorption spectra were recorded from 450 to 650 nm every 5 seconds over a 350-second observation time. The concentrations of the merocyanine were adjusted so that the initial t=0 absorbance at the absorption maximum (λmax) was in the range of 1-1.4. All kinetics experiments were done in triplicate once an appropriate spiropyran/merocyanine surfactant concentration was determined. The absorbances at λmax were normalized to the highest value, and the three data sets averaged to give the normalized absorbances as a function of time. If the normalized absorbance had dropped to at least 0.5 during the 350-s monitoring time, the half-life was taken as the time at which the normalized absorbance had reached 0.5.

[3] abbreviates: in acetone, after 365 nm irradiation.
[4] abbreviates: in cyclohexane, after 365 nm irradiation.
The mark [5] stands for this setting: in ethanol, longer than 350 s monitoring, by extrapolation of exponential fit.
The mark [6] stands for this setting: in ethyl acetate, after 365 nm irradiation.
Setting [7] is: in methanol, longer than 350 s monitoring, by extrapolation of exponential fit.
Setting [8] is: in octanol, longer than 350 s monitoring, by extrapolation of exponential fit.
[9] abbreviates: in toluene, after 365 nm irradiation.

Regarding `CCCCCCCCCCCCCCCCCCN1c2ccccc2C(C)(C)C12C=Cc1cc([N+](=O)[O-])ccc1O2` (stereo not shown) [4e, 3′,3′-Dimethyl-6-nitro-1′-octadecylspiro[chromene-2,2′-indoline]], the “reversibility after UV-treated solution placed in the dark” value in series [1] (53 mg/mL palmitic acid) is on record as “precipitate began to form”. The “palmitic acid dissolved with activated surfactant” value in series [1] (53 mg/mL palmitic acid charged, 365-nm ultraviolet light) turned out to be 53 mg/mL. For the same molecule, in series [1] (53 mg/mL palmitic acid charged, kept in the dark), the “dissolution of palmitic acid with ground-state surfactant” value is listed as “not fully dissolved”.
Take `C[N+]1=C(/C=C/c2cc([N+](=O)[O-])ccc2[O-])C(C)(C)c2ccccc21` [5a]: the “Merocyanine Half-life” value in series [2] (setting [3]) was 103 s; in series [2] (setting [4]) it was 14 s; in series [2] (setting [5]), 1200 s; in series [2] (setting [6]), 19 s; in series [2] (setting [7]), 4900 s; in series [2] (setting [8]), 610 s. Moreover, in series [2] (setting [9]), the “Merocyanine Half-life” value stood at 16 s.
Regarding `CCCC[N+]1=C(/C=C/c2cc([N+](=O)[O-])ccc2[O-])C(C)(C)c2ccccc21` [5b], the “Merocyanine Half-life” value in series [2] (setting [3]) was 130 s; in series [2] (setting [4]) it was 44 s; in series [2] (setting [5]), 1300 s; in series [2] (setting [6]), 23 s; in series [2] (setting [7]) it was 23000 s; in series [2] (setting [8]), 610 s. In series [2] (setting [9]), the “Merocyanine Half-life” value worked out at 32 s.
With `CCCCCCCC[N+]1=C(/C=C/c2cc([N+](=O)[O-])ccc2[O-])C(C)(C)c2ccccc21` [5c], the “Merocyanine Half-life” value in series [2] (setting [3]) was 153 s; in series [2] (setting [4]), 40 s; in series [2] (setting [5]), 1500 s; in series [2] (setting [6]), 20 s; in series [2] (setting [7]), >10^4‡ seconds; in series [2] (setting [8]) it was 610 s. Besides, in series [2] (setting [9]), the “Merocyanine Half-life” value was found to be 38 s.
For the molecule `CCCCCCCCCCCCCCCCCC[N+]1=C(/C=C/c2cc([N+](=O)[O-])ccc2[O-])C(C)(C)c2ccccc21` [5e], the “Merocyanine Half-life” value in series [2] (setting [3]) was 114 s; in series [2] (setting [4]) it was 40 s; in series [2] (setting [5]), 1450 s; in series [2] (setting [6]) it was 20 s; in series [2] (setting [7]) it was 11000 s; in series [2] (setting [8]), 830 s. In addition, in series [2] (setting [9]), the “Merocyanine Half-life” value amounted to 49 s.
